This passage reports IC50, Acute toxicity and Solubility results from patent publication EP0600342A1, “Hispidospermidin and pharmaceutical compositions” (F. HOFFMANN-LA ROCHE AG, priority 1992, dated 1994).

“Also recorded” adds a separate entry of the source.

The test system of series [1] is partially purified rat brain PLC. The series is described as follows: Inhibitory activity against PLC (hydrolysis of radiolabelled PI). It is filed as biochemical. Particulars: 250 µM PI substrate, 2 mM CaCl₂, Tris-acetate buffer pH 5.5, 20 min at 30 °C; read-out: IC₅₀. Here is the method:
Inhibitory activity of hispidospermidin against PLC was measured. The assay mixture (0.1 ml) contained 200 mM Tris-acetate buffer (pH 5.5), 2 mM CaCl₂, 250 µM PI (suspended in the buffer, specific activity: 800 dpm/nmole) and enzyme. In the standard assay, 20 µl of inhibitor in 15 mM Tis-HCl buffer (pH 7.5) was added to the substrate suspension (50 µl). The reaction was started with addition of the enzyme solution prepared from partially purified rat brain PLC (30 µl, ca. 5 µg protein) and incubated for 20 min. at 30 °C. The reaction was terminated by adding 0.3 ml of unlabeled PI (200 µM) solution containing 1 mg/ml of bovine serum albumin and 1 mM EGTA, followed by adding of 0.3 ml of 7.5% ice cold trichloroacetic acid containing 3 mM CaCl₂. Under the conditions, the enzyme hydrolyzed about 30 % of substrate in the assay mixture. As a positive control showing 100% inhibition of PLC, 20 µl of 25 mM EDTA was added to the assay mixture. The incubation mixture was kept on ice for 10 min asn centrifuged at 1,700 x g for 10 min. The radioactivity of an aliquot (0.2 ml) of the supernatant was measured by liquid scintillation counter (ALOKA).

A further series in a line: Acute toxicity. It is filed as in vivo. Particulars: no species, dose or route stated.
Series [2] can be described thus: Solubility (physico-chemical properties). Particulars: qualitative, by solvent. Type of series: physicochemical.

Turning to `CCN(CC)CCCC(C)Nc1c2ccc(Cl)cc2nc2ccc(OC)cc12` (stereo not shown) [Quinacrine], in series [1], the IC50 was 314 µM.
On to `C[C@@H]1CC[C@H]2[C@]13CC[C@@]1(C)O[C@]2(C)[C@@H](NCCCCN(C)CCCN(C)C)[C@H]1C3` [Hispidospermidin, hispidospermidin], for which, in “Acute toxicity”, the Acute toxicity entry is “not observed”. For the same molecule, in series [2], the Solubility result is given as “Soluble in MeOH, CHCl₃, acetone, acidic water; also recorded: Insoluble in water”. Besides, the IC50 in series [1] was 15.7 µM.
Regarding `NC[C@H]1O[C@H](O[C@H]2[C@H](O)[C@@H](O[C@H]3O[C@H](CO)[C@@H](O)[C@H](N)[C@H]3O)[C@H](N)C[C@@H]2N)[C@H](N)C[C@@H]1O` [Tobramycin], the IC50 in series [1] was 29.9 µM.
In the case of `NCCCNCCCCNCCCN` [Sperimine], in series [1], the IC50 came out at 59.3 µM.
As for `CN1CCN(CCCN2c3ccccc3Sc3ccc(C(F)(F)F)cc32)CC1` [Trifluoperazine], in series [1], the IC50 turned out to be 150 µM.
